Measurements from the NIST ThermoML archive (doi:10.1021/acs.jced.8b00037).

Test: molar heat capacity at constant volume
Conditions: Liquid, Vacuum adiabatic calorimetry

COC [dimethyl ether]
Conditions | molar heat capacity at constant volume [J/K/mol]
157.53 K, 4013 kPa | 69.69
159.72 K, 8322 kPa | 69.6
161.9 K, 12544 kPa | 69.78
164.07 K, 16672 kPa | 69.67
166.23 K, 20708 kPa | 69.85
168.38 K, 24704 kPa | 69.65
170.51 K, 28650 kPa | 69.79
172.64 K, 32529 kPa | 70.05
176.39 K, 3776 kPa | 68.85
178.57 K, 7593 kPa | 68.76
180.74 K, 11350 kPa | 68.76
182.9 K, 15062 kPa | 68.62
185.05 K, 18718 kPa | 68.78
187.2 K, 22325 kPa | 68.84
189.34 K, 25885 kPa | 68.95
191.46 K, 29382 kPa | 69
193.58 K, 32823 kPa | 69.21
200.6 K, 3313 kPa | 68.02
202.77 K, 6569 kPa | 67.99
204.93 K, 9792 kPa | 67.7
207.08 K, 12969 kPa | 68.02
209.23 K, 16115 kPa | 68
211.37 K, 19219 kPa | 68.42
213.5 K, 22288 kPa | 68.53
215.62 K, 25311 kPa | 68.58
217.74 K, 28297 kPa | 69.12
219.85 K, 31246 kPa | 69
223.34 K, 2896 kPa | 67.94
225.51 K, 5714 kPa | 67.91
227.67 K, 8494 kPa | 68.08
229.82 K, 11254 kPa | 68.44
231.97 K, 13976 kPa | 68.41
234.11 K, 16676 kPa | 68.64
236.24 K, 19342 kPa | 68.9
238.36 K, 21979 kPa | 68.71
240.48 K, 24585 kPa | 68.77
242.59 K, 27158 kPa | 69.15
244.69 K, 29702 kPa | 69.45
245.08 K, 2602 kPa | 68.32
246.78 K, 32213 kPa | 69.76
247.24 K, 5030 kPa | 68.61
249.4 K, 7443 kPa | 68.82
251.55 K, 9828 kPa | 69.15
253.7 K, 12195 kPa | 69.1
255.84 K, 14539 kPa | 69.14
257.97 K, 16865 kPa | 69.11
260.09 K, 19157 kPa | 69.43
261.13 K, 2479 kPa | 69.34
262.21 K, 21436 kPa | 69.63
263.3 K, 4661 kPa | 69.49
264.32 K, 23690 kPa | 69.84
265.47 K, 6829 kPa | 69.28
266.43 K, 25920 kPa | 69.92
267.63 K, 8973 kPa | 69.82
268.52 K, 28128 kPa | 69.96
269.79 K, 11103 kPa | 69.61
270.62 K, 30316 kPa | 69.95
271.93 K, 13210 kPa | 69.63
272.69 K, 32476 kPa | 70.7
274.07 K, 15304 kPa | 70.14
276.21 K, 17379 kPa | 70.25
278.33 K, 19435 kPa | 70.27
279.17 K, 2674 kPa | 69.72
280.45 K, 21472 kPa | 70.38
281.36 K, 4596 kPa | 69.98
282.56 K, 23487 kPa | 70.94
283.54 K, 6506 kPa | 69.97
284.67 K, 25491 kPa | 70.96
285.71 K, 8399 kPa | 70.42
286.77 K, 27476 kPa | 70.72
287.87 K, 10279 kPa | 70.77
288.86 K, 29439 kPa | 71.64
290.03 K, 12145 kPa | 71.02
290.95 K, 31396 kPa | 71.89
292.18 K, 14000 kPa | 71.24
293.04 K, 33333 kPa | 71.85
294.33 K, 15843 kPa | 71.24
296.47 K, 17674 kPa | 70.96
298.61 K, 19489 kPa | 71.48
300.73 K, 2646 kPa | 71.27
300.75 K, 21296 kPa | 71.95
302.88 K, 23091 kPa | 71.44
302.96 K, 4292 kPa | 71.08
305.01 K, 24872 kPa | 71.85
305.18 K, 5930 kPa | 71.96
307.14 K, 26644 kPa | 72.77
307.41 K, 7569 kPa | 72.11
309.27 K, 28409 kPa | 73.16
309.62 K, 9196 kPa | 71.88
311.39 K, 30163 kPa | 72.97
311.84 K, 10814 kPa | 72.56
313.52 K, 31911 kPa | 73.2
314.06 K, 12436 kPa | 72.39
315.65 K, 33651 kPa | 73
316.28 K, 14048 kPa | 72.58
318.5 K, 15656 kPa | 72.87
320.54 K, 2597 kPa | 72.71
320.74 K, 17265 kPa | 73.03
322.97 K, 18872 kPa | 73.22
323.02 K, 4128 kPa | 72.98
325.22 K, 20482 kPa | 73.26
325.5 K, 5662 kPa | 73.54
327.49 K, 22098 kPa | 73.84
328.01 K, 7206 kPa | 73.45
329.78 K, 23723 kPa | 73.46
330.53 K, 8756 kPa | 73.25
332.09 K, 25355 kPa | 73.79
333.07 K, 10311 kPa | 73.52
334.44 K, 27002 kPa | 74.11
335.63 K, 11877 kPa | 73.69
336.81 K, 28665 kPa | 74.55
338.21 K, 13448 kPa | 74.18
339.21 K, 30343 kPa | 75.43
340.82 K, 15034 kPa | 74.59
341.66 K, 32044 kPa | 75.07
343.45 K, 16629 kPa | 74.42
344.14 K, 33761 kPa | 74.99
